The values that follow come from PubChem BioAssay AID1259407 (Chemical Carcinogenesis Research Information System (CCRIS), 2018).

Calls of active or inactive are those of the source. No rule for the calls is given here.

The data set concerns CCRIS mutagenicity, Ames/micronucleus/aberration tests. Put plainly: CCRIS mutagenicity studies.
Where [1] appears, read: Test System: AMES SALMONELLA TYPHIMURIUM, Strain/Indicator: TA97, Metabolic Activation: HAMSTER, LIVER, S-9, AROCLOR 1254 (10%), Method: PREINCUBATION
Setting [2] is: Test System: AMES SALMONELLA TYPHIMURIUM, Strain/Indicator: TA97, Metabolic Activation: NONE, Method: PREINCUBATION
The mark [3] stands for this setting: Test System: AMES SALMONELLA TYPHIMURIUM, Strain/Indicator: TA97, Metabolic Activation: RAT, LIVER, S-9, AROCLOR 1254 (10%), Method: PREINCUBATION
The mark [4] stands for this setting: Test System: AMES SALMONELLA TYPHIMURIUM, Strain/Indicator: TA98, Metabolic Activation: RAT, LIVER, S-9, AROCLOR 1254 (10%), Method: PREINCUBATION
[5] abbreviates: Test System: AMES SALMONELLA TYPHIMURIUM, Strain/Indicator: TA100, Metabolic Activation: HAMSTER, LIVER, S-9, AROCLOR 1254 (10%), Method: PREINCUBATION
[6] abbreviates: Test System: AMES SALMONELLA TYPHIMURIUM, Strain/Indicator: TA100, Metabolic Activation: NONE, Method: PREINCUBATION
Where [7] appears, read: Test System: AMES SALMONELLA TYPHIMURIUM, Strain/Indicator: TA100, Metabolic Activation: RAT, LIVER, S-9, AROCLOR 1254 (10%), Method: PREINCUBATION
Setting [8] is: Test System: AMES SALMONELLA TYPHIMURIUM, Strain/Indicator: TA1535, Metabolic Activation: HAMSTER, LIVER, S-9, AROCLOR 1254 (10%), Method: PREINCUBATION
Where [9] appears, read: Test System: AMES SALMONELLA TYPHIMURIUM, Strain/Indicator: TA1535, Metabolic Activation: NONE, Method: PREINCUBATION
[10] abbreviates: Test System: AMES SALMONELLA TYPHIMURIUM, Strain/Indicator: TA1535, Metabolic Activation: RAT, LIVER, S-9, AROCLOR 1254 (10%), Method: PREINCUBATION
[11] abbreviates: Test System: AMES SALMONELLA TYPHIMURIUM, Strain/Indicator: TA1537, Metabolic Activation: NONE, Method: PREINCUBATION

Regarding `CC(Cl)Cl`, the mutagenic call was “active; positive (structural changes)” (End Point: IN VIVO CHROMOSOMAL ABERRATIONS, Test System: BONE MARROW, Species: MOUSE, Strain/Sex: SWISS-WEBSTER/MALE, Route: INTRAPERITONEAL); “active; positive (dose-dependent)” (End Point: IN VIVO MICRONUCLEUS, Test System: BONE MARROW, Species: MOUSE, Strain/Sex: SWISS-WEBSTER/MALE, Route: INTRAPERITONEAL); “inactive; negative” under setting [1]; “inactive; negative” (Test System: AMES SALMONELLA TYPHIMURIUM, Strain/Indicator: TA97, Metabolic Activation: HAMSTER, LIVER, S-9, AROCLOR 1254 (30%), Method: PREINCUBATION); “inactive; negative” under setting [2]; “inactive; negative” under setting [3]. For the same molecule, the mutagenic call runs as follows: (Test System: AMES SALMONELLA TYPHIMURIUM, Strain/Indicator: TA97, Metabolic Activation: RAT, LIVER, S-9, AROCLOR 1254 (30%), Method: PREINCUBATION) “inactive; negative”; (Test System: AMES SALMONELLA TYPHIMURIUM, Strain/Indicator: TA98, Metabolic Activation: HAMSTER, LIVER, S-9, AROCLOR 1254 (10%), Method: PREINCUBATION) “inactive; negative”; (Test System: AMES SALMONELLA TYPHIMURIUM, Strain/Indicator: TA98, Metabolic Activation: HAMSTER, LIVER, S-9, AROCLOR 1254 (30%), Method: PREINCUBATION) “inactive; negative”; (Test System: AMES SALMONELLA TYPHIMURIUM, Strain/Indicator: TA98, Metabolic Activation: NONE, Method: PREINCUBATION) “inactive; negative”; under setting [4], “inactive; negative”; (Test System: AMES SALMONELLA TYPHIMURIUM, Strain/Indicator: TA98, Metabolic Activation: RAT, LIVER, S-9, AROCLOR 1254 (30%), Method: PREINCUBATION) “inactive; negative”. Also, the mutagenic call by setting is: under setting [5], “inactive; negative”; (Test System: AMES SALMONELLA TYPHIMURIUM, Strain/Indicator: TA100, Metabolic Activation: HAMSTER, LIVER, S-9, AROCLOR 1254 (30%), Method: PREINCUBATION) “inactive; negative”; under setting [6], “inactive; negative”; under setting [7], “inactive; negative”; (Test System: AMES SALMONELLA TYPHIMURIUM, Strain/Indicator: TA100, Metabolic Activation: RAT, LIVER, S-9, AROCLOR 1254 (30%), Method: PREINCUBATION) “inactive; negative”; under setting [8], “inactive; negative”. In addition, the mutagenic call runs as follows: (Test System: AMES SALMONELLA TYPHIMURIUM, Strain/Indicator: TA1535, Metabolic Activation: HAMSTER, LIVER, S-9, AROCLOR 1254 (30%), Method: PREINCUBATION) “inactive; negative”; under setting [9], “inactive; negative”; under setting [10], “inactive; negative”; (Test System: AMES SALMONELLA TYPHIMURIUM, Strain/Indicator: TA1535, Metabolic Activation: RAT, LIVER, S-9, AROCLOR 1254 (30%), Method: PREINCUBATION) “inactive; negative”; (Test System: AMES SALMONELLA TYPHIMURIUM, Strain/Indicator: TA1537, Metabolic Activation: HAMSTER, LIVER, S-9, AROCLOR 1254 (30%), Method: PREINCUBATION) “inactive; negative”; under setting [11], “inactive; negative”. Besides, where the note is “Test System: AMES SALMONELLA TYPHIMURIUM, Strain/Indicator: TA1537, Metabolic Activation: RAT, LIVER, S-9, AROCLOR 1254 (30%), Method: PREINCUBATION”, the mutagenic call is “inactive; negative”.

With `CC(=O)N(O)c1ccccc1C`, the mutagenic call is “inactive; negative” (Test System: AMES SALMONELLA TYPHIMURIUM, Strain/Indicator: TA98, Metabolic Activation: NONE, Method: STANDARD PLATE); “active; positive” (Test System: AMES SALMONELLA TYPHIMURIUM, Strain/Indicator: TA98, Metabolic Activation: RAT, LIVER, S-9, AROCLOR 1254, Method: STANDARD PLATE); “inactive; negative” (Test System: AMES SALMONELLA TYPHIMURIUM, Strain/Indicator: TA100, Metabolic Activation: NONE, Method: STANDARD PLATE); “inactive; negative” (Test System: AMES SALMONELLA TYPHIMURIUM, Strain/Indicator: TA100, Metabolic Activation: RAT, LIVER, S-9, AROCLOR 1254, Method: STANDARD PLATE).

With `Cc1cc(N=Nc2c(O)ccc3ccccc23)c(S(=O)(=O)O)cc1Cl`, the mutagenic call (End Point: IN VITRO CHROMOSOMAL ABERRATIONS, Test System: CHO CELLS, Metabolic Activation: NONE) is “inactive; negative”; the mutagenic call (End Point: IN VITRO CHROMOSOMAL ABERRATIONS, Test System: CHO CELLS, Metabolic Activation: RAT, LIVER, S-9, AROCLOR 1254) is “inactive; negative”; the mutagenic call under setting [1] was “inactive; negative”; the mutagenic call under setting [2] was “inactive; negative”; the mutagenic call under setting [3] was “inactive; negative”; the mutagenic call (Test System: AMES SALMONELLA TYPHIMURIUM, Strain/Indicator: TA98, Metabolic Activation: HAMSTER, LIVER, S-9, AROCLOR 1254 (5, 10 OR 30%), Method: PREINCUBATION) is “inactive; negative”. The mutagenic call was “inactive; negative” under setting [4]; “inactive; negative” under setting [5]; “inactive; negative” under setting [6]; “inactive; negative” under setting [7]; “inactive; negative” (Test System: AMES SALMONELLA TYPHIMURIUM, Strain/Indicator: TA100, Metabolic Activation: RAT, LIVER, S-9, AROCLOR 1254, FLAVIN MONONUCLEOTIDE, Method: PREINCUBATION (PRIVAL METHOD)); “inactive; negative” (Test System: AMES SALMONELLA TYPHIMURIUM, Strain/Indicator: TA100, Metabolic Activation: RAT, LIVER, S-9, AROCLOR 1254, Method: PREINCUBATION). Further, the mutagenic call by setting is: under setting [8], “inactive; negative”; under setting [9], “inactive; negative”; under setting [10], “inactive; negative”; under setting [11], “inactive; negative”.
